This note sets out measurements from US20240254119A1 (THIRD HARMONIC BIO, INC., priority 2022, published 2024).

One may read the IC50 as the concentration at which inhibition is half-maximal. A word on the solubility: it is the dissolved amount per volume that the medium holds. A higher solubility goes with a readily soluble substance.

One data set addresses T1, wtKIT (Homo sapiens, UniProt P10721).
T1 construct: 1888289AM in the reaction mixtures
Briefly: Caliper biochemical assay, wtKIT. Particulars: Table 6, read-out: KIT Biochemical IC50 avg. The method in brief:
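Mobility-shift read-out: after EDTA stop, fluorescent peptide substrate and product resolved electrophoretically on LabChip 3000. Reaction ran 3 h at 25° C with 400 μM ATP, Mn^2+ cofactor, 5.0 nM wtKIT, 1 μM FAM-peptide, pH 7.5 HEPES buffer; no-enzyme wells defined full inhibition.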

The target of the next data set is T2, CSF-1R (Homo sapiens, UniProt P07333).
T2 construct: purchased Invitrogen PV3249 (lot 662393N)
T2 sequence (P07333 20-972): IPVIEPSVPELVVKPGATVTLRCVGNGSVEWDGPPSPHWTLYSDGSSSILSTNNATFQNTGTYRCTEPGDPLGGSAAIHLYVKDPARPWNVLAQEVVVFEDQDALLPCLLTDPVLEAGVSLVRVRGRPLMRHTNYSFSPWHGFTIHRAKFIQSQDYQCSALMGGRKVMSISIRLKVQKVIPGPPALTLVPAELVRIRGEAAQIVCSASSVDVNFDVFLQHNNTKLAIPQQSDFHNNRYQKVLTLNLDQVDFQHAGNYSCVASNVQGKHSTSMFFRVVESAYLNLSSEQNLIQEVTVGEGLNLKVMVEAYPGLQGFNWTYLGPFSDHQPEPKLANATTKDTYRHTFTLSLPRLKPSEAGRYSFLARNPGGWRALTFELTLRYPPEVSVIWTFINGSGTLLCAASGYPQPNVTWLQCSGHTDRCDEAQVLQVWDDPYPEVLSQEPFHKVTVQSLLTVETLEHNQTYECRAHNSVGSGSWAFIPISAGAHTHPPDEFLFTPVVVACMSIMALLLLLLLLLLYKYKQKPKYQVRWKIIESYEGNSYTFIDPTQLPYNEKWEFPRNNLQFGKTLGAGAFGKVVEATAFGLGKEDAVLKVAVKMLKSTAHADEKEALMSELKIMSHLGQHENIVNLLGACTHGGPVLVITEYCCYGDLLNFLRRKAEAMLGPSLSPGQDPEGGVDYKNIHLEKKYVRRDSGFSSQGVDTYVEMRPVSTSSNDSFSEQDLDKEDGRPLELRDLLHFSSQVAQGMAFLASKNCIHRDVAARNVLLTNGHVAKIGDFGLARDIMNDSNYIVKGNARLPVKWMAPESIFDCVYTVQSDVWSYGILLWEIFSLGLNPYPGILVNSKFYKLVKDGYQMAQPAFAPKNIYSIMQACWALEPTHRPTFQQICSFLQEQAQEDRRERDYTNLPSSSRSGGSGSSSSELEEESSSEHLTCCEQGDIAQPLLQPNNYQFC
The data set can be described thus: Caliper biochemical assay, CSF-1R. Particulars: Table 6. The method in brief:
(§1)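 Mobility-shift readout: after EDTA quench, fluorescent peptide and product are resolved electrophoretically on a LabChip and measured by fluorescence. Reactions contain enzyme, carboxyfluorescein peptide, ATP, Mn^2+ and compound, run 3 h at 25° C; 100% inhibition control lacks enzyme.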

The target of the next data set is T3, PDGFRα (Homo sapiens, UniProt P16234).
T3 construct: purchased Millipore 14-467 (lot 26321_ACTI)
T3 sequence (P16234 24-1089): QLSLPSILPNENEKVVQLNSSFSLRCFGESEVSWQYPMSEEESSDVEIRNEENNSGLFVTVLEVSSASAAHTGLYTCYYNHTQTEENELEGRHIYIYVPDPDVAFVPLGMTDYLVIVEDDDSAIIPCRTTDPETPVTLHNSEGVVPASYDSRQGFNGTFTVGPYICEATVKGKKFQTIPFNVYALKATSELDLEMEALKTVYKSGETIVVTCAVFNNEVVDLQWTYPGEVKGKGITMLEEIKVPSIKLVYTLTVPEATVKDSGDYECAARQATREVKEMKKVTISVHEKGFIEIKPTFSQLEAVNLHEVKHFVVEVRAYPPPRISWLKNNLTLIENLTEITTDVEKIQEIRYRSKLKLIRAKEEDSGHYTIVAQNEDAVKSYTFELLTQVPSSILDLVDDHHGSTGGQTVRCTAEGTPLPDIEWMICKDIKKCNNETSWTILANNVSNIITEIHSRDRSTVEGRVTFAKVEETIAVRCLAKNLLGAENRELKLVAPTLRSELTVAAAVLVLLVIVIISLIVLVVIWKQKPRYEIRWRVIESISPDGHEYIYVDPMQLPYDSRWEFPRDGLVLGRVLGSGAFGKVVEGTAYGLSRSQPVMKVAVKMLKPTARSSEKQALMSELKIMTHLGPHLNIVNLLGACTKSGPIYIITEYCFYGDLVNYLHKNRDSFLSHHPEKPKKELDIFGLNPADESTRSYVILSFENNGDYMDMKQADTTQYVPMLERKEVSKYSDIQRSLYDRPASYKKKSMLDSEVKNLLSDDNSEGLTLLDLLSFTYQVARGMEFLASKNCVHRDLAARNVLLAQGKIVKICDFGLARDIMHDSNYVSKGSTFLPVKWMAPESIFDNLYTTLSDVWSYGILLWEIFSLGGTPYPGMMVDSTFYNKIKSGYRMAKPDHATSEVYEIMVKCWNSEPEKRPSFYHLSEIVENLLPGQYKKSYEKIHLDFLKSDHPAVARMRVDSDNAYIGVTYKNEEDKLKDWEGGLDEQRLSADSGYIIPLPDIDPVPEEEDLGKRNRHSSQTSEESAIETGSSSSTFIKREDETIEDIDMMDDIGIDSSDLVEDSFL
The data set can be described thus: Caliper biochemical assay, PDGFRα. To be noted: Table 6. Put shortly:
as §1

Data set [1] has as its target T4, BCRP (BCRP-MDCKII monolayer) (Homo sapiens, UniProt Q9UNQ0).
T4 construct: host or cells: MDCKII (canine kidney) cells
T4 sequence (Q9UNQ0 1-655): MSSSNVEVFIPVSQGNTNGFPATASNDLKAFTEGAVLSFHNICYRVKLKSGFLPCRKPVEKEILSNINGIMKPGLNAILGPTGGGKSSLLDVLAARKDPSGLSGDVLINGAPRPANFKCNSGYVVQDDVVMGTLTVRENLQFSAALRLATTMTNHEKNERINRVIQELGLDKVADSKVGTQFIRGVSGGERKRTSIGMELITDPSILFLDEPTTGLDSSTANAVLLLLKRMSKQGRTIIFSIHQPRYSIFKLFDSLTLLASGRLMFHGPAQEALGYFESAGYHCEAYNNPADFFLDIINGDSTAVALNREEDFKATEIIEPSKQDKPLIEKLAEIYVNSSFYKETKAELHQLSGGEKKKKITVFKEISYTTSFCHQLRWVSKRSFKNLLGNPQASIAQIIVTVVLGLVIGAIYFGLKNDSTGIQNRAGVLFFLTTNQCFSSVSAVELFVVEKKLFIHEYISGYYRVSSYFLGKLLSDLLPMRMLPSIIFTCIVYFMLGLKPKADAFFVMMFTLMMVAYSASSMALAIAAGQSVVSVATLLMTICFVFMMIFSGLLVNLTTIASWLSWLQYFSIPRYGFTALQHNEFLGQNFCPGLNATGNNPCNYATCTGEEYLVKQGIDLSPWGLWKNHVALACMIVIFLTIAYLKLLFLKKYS
The data set can be described thus: MDCKII-BCRP bidirectional transport assay. Type of data set: in vitro ADME. To be noted: for MDCK-BCRP: Papp A-B: apical to basolateral. The method in brief:
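Efflux ratios were derived from Papp values, alongside recovery, with compounds quantified by LC-MS/MS. Both directions were tested in duplicate across BCRP-MDCKII monolayers used on days 12–15. Incubation ran 120 min at 37° C, 5% CO2, after a 15 min preincubation in assay buffer.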

Another data set in a line: Kinetic solubility assay. In kind it is physicochemical. To be noted: for Solubility (μM): kinetic solubility, 50 mM PB (pH 7.4), shaken 24 hours at RT. The method in brief: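 Concentration in the filtrate was determined by UPLC-UV or HPLC-UV with a standard curve. Before that, compound (10 mM DMSO stock) in 50 mM PB at pH 7.4 was agitated 24 h at room temperature, then PTFE-filtered with centrifugation.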

Molecules are shown by their SMILES. Converted amounts (≈) assume the structure as drawn.

T1 sequence (P10721 26-976): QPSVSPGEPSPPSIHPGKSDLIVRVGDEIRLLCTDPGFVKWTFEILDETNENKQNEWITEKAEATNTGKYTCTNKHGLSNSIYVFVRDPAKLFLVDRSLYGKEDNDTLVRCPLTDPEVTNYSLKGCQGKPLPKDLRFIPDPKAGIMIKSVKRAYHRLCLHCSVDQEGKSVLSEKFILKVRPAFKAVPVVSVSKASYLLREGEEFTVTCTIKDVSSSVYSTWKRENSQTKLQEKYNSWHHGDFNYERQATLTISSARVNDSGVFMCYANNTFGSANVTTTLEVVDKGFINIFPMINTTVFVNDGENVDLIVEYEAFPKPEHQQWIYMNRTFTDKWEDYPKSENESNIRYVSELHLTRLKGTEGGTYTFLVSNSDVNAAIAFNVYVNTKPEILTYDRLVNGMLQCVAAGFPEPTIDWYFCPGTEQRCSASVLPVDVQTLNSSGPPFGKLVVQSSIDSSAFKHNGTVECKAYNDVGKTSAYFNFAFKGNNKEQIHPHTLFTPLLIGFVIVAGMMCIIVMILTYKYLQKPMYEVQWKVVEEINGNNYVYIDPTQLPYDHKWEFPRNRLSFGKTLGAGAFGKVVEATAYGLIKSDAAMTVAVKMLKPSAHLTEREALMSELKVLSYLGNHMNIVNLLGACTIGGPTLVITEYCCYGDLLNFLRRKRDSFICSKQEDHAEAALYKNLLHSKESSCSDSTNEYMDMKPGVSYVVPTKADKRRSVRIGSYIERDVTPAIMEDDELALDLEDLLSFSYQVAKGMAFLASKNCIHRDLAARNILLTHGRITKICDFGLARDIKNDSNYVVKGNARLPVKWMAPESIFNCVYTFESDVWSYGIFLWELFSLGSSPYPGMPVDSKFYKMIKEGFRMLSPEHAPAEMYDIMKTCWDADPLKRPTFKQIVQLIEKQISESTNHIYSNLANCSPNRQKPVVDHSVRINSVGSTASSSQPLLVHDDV

With `Cc1ccc(-c2noc(C(C)NS(C)(=O)=O)n2)cc1NC(=O)c1cnc2ccccn12` (single isomer, unassigned) [Compound I-238], the results for the IC50 on wtKIT, against CSF-1R and at PDGFRα were no more than 50 nM, 50 to 500 nM and 5 to 30 µM, respectively. Further, the “MDCK-BCRP: Efflux Ratio” value in data set [1] is recorded as 22.7. The “MDCK-BCRP: Papp A-B” value in data set [1] is 0.92 10^−6 cm/s. Besides, the “Solubility (μM)” value in “Kinetic solubility assay” is reported as “* (a solubility greater than 50 μM)”.

For `Cc1ccc(-c2noc([C@H](C)O)n2)cc1NC(=O)c1cnc2ccccn12` [Compound I-271], the IC50 was no more than 50 nM on wtKIT, 50 to 500 nM on CSF-1R and 0.5 to 5 µM at PDGFRα. Also, in data set [1], the “MDCK-BCRP: Efflux Ratio” value was 29.6. Besides, the “MDCK-BCRP: Papp A-B” value in data set [1] is reported as 1.25 10^−6 cm/s. Moreover, in “Kinetic solubility assay”, the “Solubility (μM)” value was “* (a solubility greater than 50 μM)”.

Regarding `CCCNc1ccn2c(C(=O)Nc3cc(-c4noc([C@H]5C[C@@H]5F)n4)ccc3C)cnc2c1` [Compound I-304], the concentration for half-maximal inhibition (IC50) on wtKIT is no more than 50 nM; against CSF-1R it was no more than 50 nM; at PDGFRα it was no more than 0.05 µM. The “MDCK-BCRP: Efflux Ratio” value in data set [1] turned out to be 3.43. Further, the “MDCK-BCRP: Papp A-B” value in data set [1] is given as 5.05 10^−6 cm/s. In addition, the “Solubility (μM)” value in “Kinetic solubility assay” is “**** (a solubility less than or equal to 2 μM)”.

In the case of `Cc1ccc(-c2noc(C3CCN3)n2)cc1NC(=O)c1cnc2ccccn12` (racemic) [Compound I-394], the IC50 on wtKIT is no more than 50 nM; against CSF-1R it was 50 to 500 nM; against PDGFRα it was 5 to 30 µM. Also, the “MDCK-BCRP: Efflux Ratio” value in data set [1] is 23.2. In addition, the “MDCK-BCRP: Papp A-B” value in data set [1] is reported as 1.42 10^−6 cm/s. The “Solubility (μM)” value in “Kinetic solubility assay” is listed as “* (a solubility greater than 50 μM)”.

With `COc1ccn2c(C(=O)Nc3cc(-c4noc(C[C@H](C)O)n4)ccc3C)cnc2c1` [Compound I-94], in data set [1], the “MDCK-BCRP: Efflux Ratio” value was 8.04 and the “MDCK-BCRP: Papp A-B” value is listed as 5.19 10^−6 cm/s. The “Solubility (μM)” value in the data set “Kinetic solubility assay” is recorded as “**** (a solubility less than or equal to 2 μM)”.

As for `Cc1ccc(-c2noc(C(C)O)n2)cc1NC(=O)c1cnc2ccccn12` (racemic) [Compound I-364], the IC50 at wtKIT was 50 to 500 nM; against CSF-1R, no more than 50 nM; on PDGFRα, 5 to 30 µM. Moreover, the “MDCK-BCRP: Efflux Ratio” value in data set [1] came to 9.18. In addition, the “MDCK-BCRP: Papp A-B” value in data set [1] is 2.19 10^−6 cm/s. The “Solubility (μM)” value in “Kinetic solubility assay” is given as “* (a solubility greater than 50 μM)”.

Regarding `Cc1ccc(-c2noc(C3CN(C(=O)CO)C3)n2)cc1NC(=O)c1cnc2ccccn12` [Compound I-287], the IC50 was in the range of 50 to 500 nM at wtKIT, 5000 to 30000 nM at CSF-1R and 5 to 30 µM on PDGFRα. For the same compound, the “MDCK-BCRP: Efflux Ratio” value in data set [1] amounted to 0.65. Further, in data set [1], the “MDCK-BCRP: Papp A-B” value was 11.8 10^−6 cm/s. In addition, the “Solubility (μM)” value in the data set “Kinetic solubility assay” is “*** (a solubility greater than 2 μM and less than or equal to 10 μM)”.

As to `Cc1ccc(-c2cnc(N3CC(F)(F)C3)o2)cc1NC(=O)c1cnc2ccccn12` [Compound I-213], on wtKIT, the IC50 was no more than 50 nM. For the same compound, in data set [1], the “MDCK-BCRP: Efflux Ratio” value is 1.42 and the “MDCK-BCRP: Papp A-B” value was 20.6 10^−6 cm/s. In the data set “Kinetic solubility assay”, the “Solubility (μM)” value was “**** (a solubility less than or equal to 2 μM)”.

Take `COCCOCc1ccn2c(C(=O)Nc3cc(-c4noc([C@H]5C[C@@H]5F)n4)ccc3C)cnc2c1` [Compound I-84]: in data set [1], the “MDCK-BCRP: Efflux Ratio” value was found to be 2.28 and the “MDCK-BCRP: Papp A-B” value is listed as 20.7 10^−6 cm/s. The “Solubility (μM)” value in the data set “Kinetic solubility assay” was “** (a solubility greater than 10 μM and less than or equal to 50 μM)”.

Take `Cc1ccc(-c2noc(C3CCS(=O)(=O)C3)n2)cc1NC(=O)c1cnc2ccccn12` (racemic) [Compound I-389]: the half-maximal inhibitory concentration (IC50) at wtKIT was in the range of 50 to 500 nM. Further, in data set [1], the “MDCK-BCRP: Efflux Ratio” value came out at 54.3 and the “MDCK-BCRP: Papp A-B” value is on record as 0.87 10^−6 cm/s. Moreover, the “Solubility (μM)” value in the data set “Kinetic solubility assay” was “** (a solubility greater than 10 μM and less than or equal to 50 μM)”.

Turning to `COc1ccn2c(C(=O)Nc3cc(-c4noc(CC5CC(F)(F)C5)n4)ccc3C)cnc2c1` [Compound I-91], in data set [1], the “MDCK-BCRP: Efflux Ratio” value is 1.76 and the “MDCK-BCRP: Papp A-B” value is 1.11 10^−6 cm/s. Moreover, the “Solubility (μM)” value in the data set “Kinetic solubility assay” is given as “**** (a solubility less than or equal to 2 μM)”.

On to `Cc1ccc(-c2noc(C3(O)CC(F)(F)C3)n2)cc1NC(=O)c1cnc2ccccn12` [Compound I-380], for which the IC50 on wtKIT was no more than 50 nM. For the same compound, in data set [1], the “MDCK-BCRP: Efflux Ratio” value was 14.2 and the “MDCK-BCRP: Papp A-B” value was 1.21 10^−6 cm/s. Besides, the “Solubility (μM)” value in the data set “Kinetic solubility assay” is recorded as “**** (a solubility less than or equal to 2 μM)”.

In the case of `Cc1ccc(-c2noc([C@H]3C[C@@H]3F)n2)cc1NC(=O)c1cnc2cc(OC(F)(F)F)ccn12` [Compound I-87], in data set [1], the “MDCK-BCRP: Efflux Ratio” value is listed as 0.71 and the “MDCK-BCRP: Papp A-B” value is 30.4 10^−6 cm/s. Further, the “Solubility (μM)” value in the data set “Kinetic solubility assay” is on record as “**** (a solubility less than or equal to 2 μM)”.

With `COc1ccc2ncc(C(=O)Nc3cc(-c4noc(C[C@@H](C)O)n4)ccc3C)n2c1` [Compound I-119], the “Solubility (μM)” value in “Kinetic solubility assay” is “**** (a solubility less than or equal to 2 μM)”.

In the case of `CCOc1ccn2c(C(=O)Nc3cc(-c4noc([C@H]5C[C@@H]5F)n4)ccc3C)cnc2c1` [Compound I-93], in data set [1], the “MDCK-BCRP: Efflux Ratio” value is listed as 1.16 and the “MDCK-BCRP: Papp A-B” value is recorded as 21 10^−6 cm/s. Further, the “Solubility (μM)” value in the data set “Kinetic solubility assay” was “**** (a solubility less than or equal to 2 μM)”.

For the compound `Cc1ccc(-c2noc(CC(O)C(F)F)n2)cc1NC(=O)c1cnc2ccccn12` (stereo not shown) [Compound I-122], in data set [1], the “MDCK-BCRP: Efflux Ratio” value was 29.4 and the “MDCK-BCRP: Papp A-B” value was 1.63 10^−6 cm/s. The “Solubility (μM)” value in “Kinetic solubility assay” is “**** (a solubility less than or equal to 2 μM)”.

In the case of `Cc1ccc(-c2noc([C@H]3C[C@@H]3F)n2)cc1NC(=O)c1cnn2ccccc12` [Compound I-109], in data set [1], the “MDCK-BCRP: Efflux Ratio” value was determined as 1.12 and the “MDCK-BCRP: Papp A-B” value is listed as 88.7 10^−6 cm/s. Moreover, the “Solubility (μM)” value in “Kinetic solubility assay” is “**** (a solubility less than or equal to 2 μM)”.

In the case of `Cc1ccc(-c2noc([C@H]3C[C@@H]3F)n2)cc1NC(=O)c1cnc2cc(COCC(C)(C)O)ccn12` [Compound I-71, N-[5-[5-[(1R,2S)-2-fluorocyclopropyl]-1,2,4-oxadiazol-3-yl]-2-methyl-phenyl]-7-[(2-hydroxy-2-methyl-propoxy)methyl]imidazo[1,2-a]pyridine-3-carboxamide], the IC50 on wtKIT is no more than 50 nM; on CSF-1R, no more than 50 nM; against PDGFRα, 0.5 to 5 µM. Besides, the solubility at 24 h in the data set “Kinetic solubility assay” (phosphate buffer, pH 7.4, aqueous buffer, kinetic from dmso stock) is 10 to 50 µM (≈ 4.8 to 24 µg/mL).

Turning to `COc1ccn2c(C(=O)Nc3cc(-c4noc(CC(O)C(F)F)n4)ccc3C)cnc2c1` (single isomer, unassigned) [Compound I-76], the “Solubility (μM)” value in the data set “Kinetic solubility assay” is “**** (a solubility less than or equal to 2 μM)”.

`Cc1ccc(-c2noc(CC(C)(C)O)n2)cc1NC(=O)c1cnc2ccccn12` [Compound I-336]: the half-maximal inhibitory concentration (IC50) at wtKIT lay within 50 to 500 nM. Besides, in data set [1], the “MDCK-BCRP: Efflux Ratio” value was determined as 19.9 and the “MDCK-BCRP: Papp A-B” value was 1.92 10^−6 cm/s. Besides, the “Solubility (μM)” value in “Kinetic solubility assay” is “* (a solubility greater than 50 μM)”.

For `COc1ccn2c(C(=O)Nc3cc(-c4noc(C5CC(F)(F)C5)n4)ccc3C)cnc2c1` [Compound I-96], in data set [1], the “MDCK-BCRP: Efflux Ratio” value is listed as 1.44 and the “MDCK-BCRP: Papp A-B” value was 8.58 10^−6 cm/s. Further, the “Solubility (μM)” value in the data set “Kinetic solubility assay” is recorded as “**** (a solubility less than or equal to 2 μM)”.
